Assay: Clearance of PBD drug-linker from conjugation reaction mixture by tangential flow filtration (constant volume diafiltration)
Conditions: Example 8; without cyclodextrin; Tris, NaCl and 50% propylene glycol; clearance stalling after four diavolumes
Procedure: The diafiltration (DF) process used an 88 cm^2 Ultracel Pellicon 3 cassette from Millipore with a 30 kD molecular weight pore size. The batch volume for the DF was 250 mL, the feed flow rate was 40 ml/min throughout the process, and the retentate valve was adjusted to maintain a trans-membrane pressure of ˜20 psi. The diafiltration buffer addition rate to maintain constant batch volume started at 9 mL/min, but was maintained at 13-14 ml/min through most of the process. Samples were removed after the completion of each diavolume. The concentration of hpb-CD was measured in each sample using an RP HPLC assay with evaporative light scattering detection.
This mixture was brought to 10 w/v % hpb-CD by addition of 25% volume of a 50 w/v % solution of hpb-CD in 50 mM Tris/5 mM EDTA, pH 8.0. […] The concentration of quenched drug-linker was determined in each sample. […] C and C0 are concentrations of the analyte measured, N is the number of diavolumes, and S is the sieving factor, defined as the analyte concentration on the permeate side of the membrane divided by the analyte concentration on the retentate side of the membrane. […]
The TFF process was performed on quenched conjugation reaction mixture using a 30 kD MW cutoff 0.1 m^2 Ultracel Pellicon 3 membrane (Millipore). […] The concentration of quenched PBD drug-linker was determined in each sample. […]

## COc1ccc(C2=CN3C(=O)c4cc(OC)c(OCCCOc5cc6c(cc5OC)C(=O)N5C=C(c7ccc(NC(=O)[C@H](C)NC(=O)[C@@H](NC(=O)CCCCCN8C(=O)CC(SCC(NC(C)=O)C(=O)O)C8=O)C(C)C)cc7)C[C@H]5C=N6)cc4N=C[C@@H]3C2)cc1 (stereo partly shown) [compound 4]
  benzodiazepine drug-related impurity remaining in the mixture: 1.1 µM

— patent publication US10391181B2, “Cyclodextrin and antibody-drug conjugate formulations” (priority 2013, dated 2019)
